Source: US12053545B2, “Transdermal solvent system and methods of use” (Donaghys Limited, priority 2019, dated 2024)

Experiment: Stability of dual anthelmintic solvent system, accelerated aging at 40° C. for 12 months
Format: physicochemical
Conditions: for Concentration after 6 months / Concentration after 12 months: active in solvent system of Example 4, 40° C. accelerated aging; for Initial concentration: active in solvent system of Example 4, initial

Molecule | Concentration after 6 months [µg/mL] | Concentration after 12 months [µg/mL] | Initial concentration [g/L]
c1ccc([C@H]2CN3CCSC3=N2)cc1 [Levamisole] | 25450 | 24100 | 27.15
Eprinomectin | 15800 | 14600 | 16.5
